Data reported in patent publication US7888393B2, “Transdermal compositions” (Microdermis Corporation, priority 2002, dated 2011).
Values belong to the compound of their own block, whether it stands above or below them.

Experiments:
[1] = pH of quaternary compounds, fatty acids and their reaction products in water (calibrated pH meter); type: physicochemical; conditions: for pH of product compound (reaction of quaternary compound with fatty acid): molar ratio DDAC to fatty acid 1:1, 70-75 °C, after 10 minutes
Description: Example 2 was repeated employing the fatty acids; Conjugated Linoleic Acid (CLA); eicosapentaenoic acid (EPA); and gamma linolenic acid (GLA), were all dissolved in water and the pH of the resulting solutions were measured with a calibrated pH meter.
Three solutions of DDAC (188.2 g) in distilled water (2,000 g) were contacted with masses of CLA, EPA and GLA, such that the molar ratio of DDAC to each of the aforementioned fatty acids was 1:1 at a temperature of 70° C. to 75° C. and after 10 minutes the pH of the reaction products of each of these products was measured.
Merquat 550 is a trademark owned by Calgon, Inc. its manufacturer, for a proprietary cationic polymer having a repeating unit molecular weight of 680 and an overall molecular weight of about 10,000. The pH of these first transdermal compositions were measured. […] Ten minutes after acid addition, the pH of the product composition were measured.

[2] = system: open wounds; assay: Seventh transdermal composition on open wounds of patients (healing, pain); type: in vivo
Source text: As one skilled in the art can well appreciate there are endless numbers of combinations that can be made to create the desired skin effects. For example, when the quaternary ammonium salt, such as […] (DDAC), and the like, is present in a neutral pH in the first transdermal composition of the present invention described hereinabove, the formic acid from the bug bite is more effectively and more rapidly neutralized. On the other hand, when the quaternary ammonium salt, e.g., DDAC, is present in the seventh transdermal composition of the present invention, the healing rate on open wounds improves. However, when the quaternary ammonium salt, e.g., DDAC, is not substantially converted to the first reaction product, some of the patients, approximately 25% thereof, feel pain.

[3] = Stability of benzethonium chloride added to the transdermal mixtures; type: physicochemical
Description: When benzethonium chloride is added in therapeutically effective amounts to the mixtures described herein, it is stable if added at ambient temperature at a pH greater than 6. On the other hand, it is not stable if added at temperatures below the Freezing Zone and above ambient temperature at a pH of about 7.5 to about 8.

[4] = DDAC split between first reaction product (80%) and unreacted DDAC (20%)

Compound: CCCCCCCCCCCCCCCCCC[N+](C)(C)CCCCCCCCCCCCCCCCCC.[Cl-] [DDAC, dimethyl distearyl ammonium chloride]
- pH of quaternary compound in water ([1]; DDAC 188.2 g in distilled water 2,000 g): 5.38
- Patients who feel pain ([2]; DDAC not substantially converted to the first reaction product): approximately 25%
- Healing [2, 4]: rapid healing
- Pain [2, 4]: did not feel pain

Compound: CC/C=C\C/C=C\C/C=C\CCCCCCCC(=O)[O-].CCCCCCCCCCCCCCCCCC[N+](C)(C)CCCCCCCCCCCCCCCCCC [DDAL, Dimethyl Distearyl Ammonium Linolenate]
- pH of product compound (reaction of quaternary compound with fatty acid) [1]: 2.28

Compound: CC(C)(C)CC(C)(C)c1ccc(OCCOCC[N+](C)(C)Cc2ccccc2)cc1 [benzethonium chloride]
- Stability of benzethonium chloride in the mixture ([3]; added above the Freezing Zone, tip speed greater than Critical Shear Rate, pH about 7.5 to about 8): stable
- Stability of benzethonium chloride in the mixture ([3]; added at ambient temperature at pH greater than 6): stable
- Stability of benzethonium chloride in the mixture ([3]; added below the Freezing Zone and above ambient temperature at pH about 7.5 to about 8): not stable

- pH of fatty acid dissolved in water ([1]; fatty acid alone in water): (4.00)
Compound: Conjugated Linoleic Acid [CLA]

- pH of Quat and Stearic Acid ([1]; 70-75 °C, stearic acid 40 g, ten minutes after acid addition): 2.40
- pH of quaternary compound ([1]; mixed with distilled water (2,000 g), before heating): 7.83
Compound: benzalkonium chloride [BAC]

Compound: dimethyl distearyl ammonium stearate [DDAS]
- pH of product compound (reaction of quaternary compound with fatty acid) [1]: 2.38
